# Data: the OPERA property sets (Mansouri et al. 2018)
row,SMILES,logP
1,CCNC(=O)c1cc2ccccc2o1,2.22
2,CNC(=O)c1cc2ccccc2o1,1.85
3,CCCNC(=O)c1ccc[nH]1,1.25
4,CNC(=O)c1cc2ccccc2[nH]1,1.9
5,CCOC(=O)c1cc2ccccc2[nH]1,3.22
6,CCCNC(=O)c1cc2ccccc2[nH]1,2.8
7,COC(=O)c1cccn1C,1.8
8,CCCNC(=O)c1cccn1C,1.63
9,CCNC(=O)c1cc2ccccc2[nH]1,2.32
10,O=[N+]([O-])c1cncnc1,-0.05
11,CCOC(=O)c1ccc[nH]1,1.73
12,CNC(=O)c1c[nH]c2ccccc12,1.25
13,CNC(=O)c1ccc[nH]1,0.42
14,CNC(=O)c1cccn1C,0.71
15,NC(=O)c1ccc[nH]1,0.09
16,Cn1cccc1C(N)=O,0.45
17,CCOC(=O)c1cc2ccccc2o1,3.05
18,CCNC(=O)c1cccn1C,1.09
19,CCNC(=O)c1ccc[nH]1,0.8
20,CCCNC(=O)c1ccoc1,1.2
21,CCNC(=O)c1c[nH]c2ccccc12,1.62
22,CCCNC(=O)c1cc2ccccc2o1,2.65
